From US20050250113A1, “Mammalian magnesium/manganese sensing G protein coupled receptor” (The Regents of the University of California, priority 2004, published 2005)

Legend:
R5.24 = target: T1, R5.24 (Homo sapiens, UniProt Q5T6X5); test: Activity assay for R5.24 receptor: stimulus-evoked changes in intracellular calcium in cells expressing R5.24; type: cell-based; settings: FIG. 1 middle panels, calcium signal
T1 construct: expressed in transfected cells; host or cells: human embryonic kidney (HEK) cells containing Gα16-Gαz and/or Gα15 promiscuous G proteins
T1 sequence (Q5T6X5 19-926): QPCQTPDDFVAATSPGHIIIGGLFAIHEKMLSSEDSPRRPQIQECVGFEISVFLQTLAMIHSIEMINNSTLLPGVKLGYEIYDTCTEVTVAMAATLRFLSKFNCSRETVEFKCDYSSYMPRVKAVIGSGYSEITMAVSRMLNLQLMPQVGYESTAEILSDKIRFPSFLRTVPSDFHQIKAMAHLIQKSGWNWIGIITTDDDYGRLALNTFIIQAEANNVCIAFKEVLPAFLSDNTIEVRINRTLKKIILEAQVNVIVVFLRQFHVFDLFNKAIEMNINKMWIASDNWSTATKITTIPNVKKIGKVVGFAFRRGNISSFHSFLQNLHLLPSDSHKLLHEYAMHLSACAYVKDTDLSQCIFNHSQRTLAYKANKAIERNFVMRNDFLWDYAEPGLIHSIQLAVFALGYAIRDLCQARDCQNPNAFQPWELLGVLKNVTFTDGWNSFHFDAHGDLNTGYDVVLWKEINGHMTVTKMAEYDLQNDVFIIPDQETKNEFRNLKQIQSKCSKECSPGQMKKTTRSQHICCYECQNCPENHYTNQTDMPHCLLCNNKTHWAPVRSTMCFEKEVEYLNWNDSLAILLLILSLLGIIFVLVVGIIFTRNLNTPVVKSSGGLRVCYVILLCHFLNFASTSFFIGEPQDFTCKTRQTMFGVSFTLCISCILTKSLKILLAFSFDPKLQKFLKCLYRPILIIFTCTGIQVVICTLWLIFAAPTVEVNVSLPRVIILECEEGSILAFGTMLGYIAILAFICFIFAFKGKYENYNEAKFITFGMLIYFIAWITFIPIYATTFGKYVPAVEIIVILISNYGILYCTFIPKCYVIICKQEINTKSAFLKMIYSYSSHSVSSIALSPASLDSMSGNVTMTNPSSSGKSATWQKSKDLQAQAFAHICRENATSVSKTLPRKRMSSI
From the text: (§1) Candidate receptors are expressed in human embryonic kidney (HEK) cells containing, e.g., the Gα16-Gαz and/or Gα15 promiscuous G proteins (Offermanns et al., J. Biol. Chem. 270:15175-15180 (1995); Mody et al., Mol. Pharmacol. 57:13-23 (2000)), and assayed for stimulus-evoked changes in intracellular calcium. In this system, receptor activation leads to activation of phospholipase Cβ (PLC-β and release of calcium from internal stores, which can be monitored at the single-cell level using calcium-indicator dyes (Chandrashekar et al., Cell 100:703-711 (2000); Nelson et al., Cell 106:381-390 (2001); Tsien et al., Cell Calcium 6:145-157 (1985)).

[1] = tested on: cells without the receptor; test: Activity assay control: cells without the receptor stimulated with magnesium or manganese; type: cell-based, human; settings: FIG. 1 right panels
From the text: as §1

Row | Compound | response of cells expressing R5.24 to stimulation (R5.24) | response of cells without the receptor to stimulation [1]
1 | [Mg+2] [magnesium] | respond | do not respond
2 | [Mn+2] [manganese] | respond | do not respond
